In ChEMBL document CHEMBL4804284:
The source made the active and inactive calls. The calls are words filed in the database; no cut-off is given here.

Experiments:
[1] = target: RAC-gamma serine/threonine-protein kinase (Homo sapiens) (UniProt Q9Y243); experiment: Inhibition of DNA-tagged human AKT3 assessed as percent of control at 50000 nM by qPCR analysis relative to control; design: scale not given: the % may be the effect or the level left
[2] = target: Serine/threonine-protein kinase LATS1 (Homo sapiens) (UniProt O95835); experiment: Inhibition of DNA-tagged human LATS1 assessed as percent of control at 50000 nM by qPCR analysis relative to control; design: scale not given: the % may be the effect or the level left
[3] = test system: Epidermal growth factor receptor (Homo sapiens), P00533 [G719C]; experiment: Inhibition of DNA-tagged human EGFR G719C mutant assessed as percent of control at 50000 nM by qPCR analysis relative to control; design: scale not given: the % may be the effect or the level left
[4] = target: Casein kinase I isoform alpha (Homo sapiens) (UniProt P48729); experiment: Inhibition of DNA-tagged human CSNK1A1 assessed as percent of control at 50000 nM by qPCR analysis relative to control; design: scale not given: the % may be the effect or the level left
[5] = test system: Epidermal growth factor receptor (Homo sapiens), P00533 [UNDEFINED MUTATION]; experiment: Inhibition of DNA-tagged human EGFR L747-S752del/P753S double mutant assessed as percent of control at 50000 nM by qPCR analysis relative to control; design: scale not given: the % may be the effect or the level left
[6] = target: Mitogen-activated protein kinase kinase kinase 11 (Homo sapiens) (UniProt Q16584); experiment: Inhibition of DNA-tagged human MLK3 assessed as percent of control at 50000 nM by qPCR analysis relative to control; design: scale not given: the % may be the effect or the level left
[7] = target: Ribosomal protein S6 kinase alpha-2 (Homo sapiens) (UniProt Q15349); experiment: Inhibition of DNA-tagged human N-terminal RSK3 kinase domain 1 assessed as percent of control at 50000 nM by qPCR analysis relative to control; design: scale not given: the % may be the effect or the level left
[8] = target: Tyrosine-protein kinase Fer (Homo sapiens) (UniProt P16591); experiment: Inhibition of DNA-tagged human FER assessed as percent of control at 50000 nM by qPCR analysis relative to control; design: scale not given: the % may be the effect or the level left
[9] = target: Serine/threonine-protein kinase pim-2 (Homo sapiens) (UniProt Q9P1W9); experiment: Inhibition of DNA-tagged human PIM2 assessed as percent of control at 50000 nM by qPCR analysis relative to control; design: scale not given: the % may be the effect or the level left
[10] = target: Serine/threonine-protein kinase MARK1 (Homo sapiens) (UniProt Q9P0L2); experiment: Inhibition of DNA-tagged human MARK1 assessed as percent of control at 50000 nM by qPCR analysis relative to control; design: scale not given: the % may be the effect or the level left
[11] = target: Tyrosine-protein kinase BTK (Homo sapiens) (UniProt Q06187); experiment: Inhibition of DNA-tagged human BTK assessed as percent of control at 50000 nM by qPCR analysis relative to control; design: scale not given: the % may be the effect or the level left
[12] = target: NUAK family SNF1-like kinase 1 (Homo sapiens) (UniProt O60285); experiment: Inhibition of DNA-tagged human ARK5 assessed as percent of control at 50000 nM by qPCR analysis relative to control; design: scale not given: the % may be the effect or the level left
[13] = target: cAMP-dependent protein kinase catalytic subunit alpha (Homo sapiens) (UniProt P17612); experiment: Inhibition of DNA-tagged human PKAC-alpha assessed as percent of control at 50000 nM by qPCR analysis relative to control; design: scale not given: the % may be the effect or the level left
OCI-AML-3 = experiment: Cytotoxicity against human OCI-AML-3 cells at 0.1-100 uM assessed as decrease in cell viability relative to control; assay type: functional, cell-based
[14] = target: Macrophage colony-stimulating factor 1 receptor (Homo sapiens) (UniProt P07333); experiment: Inhibition of DNA-tagged human CSF1R assessed as percent of control at 50000 nM by qPCR analysis relative to control; design: scale not given: the % may be the effect or the level left
[15] = target: AP2-associated protein kinase 1 (Homo sapiens) (UniProt Q2M2I8); experiment: Inhibition of DNA-tagged human AAK1 assessed as percent of control at 50000 nM by qPCR analysis relative to control; design: scale not given: the % may be the effect or the level left
[16] = target: Mitogen-activated protein kinase 13 (Homo sapiens) (UniProt O15264); experiment: Inhibition of DNA-tagged human p38-delta assessed as percent of control at 50000 nM by qPCR analysis relative to control; design: scale not given: the % may be the effect or the level left
[17] = test system: Tyrosine-protein kinase ABL1 (Homo sapiens), P00519 [T315I]; experiment: Inhibition of DNA-tagged non-phosphorylated human ABL1 T315I mutant assessed as percent of control at 50000 nM by qPCR analysis relative to control; design: scale not given: the % may be the effect or the level left
MV4-11 = experiment: Cytotoxicity against human MV4-11 cells at 0.1-100 uM assessed as decrease in cell viability relative to control; assay type: functional, cell-based
[18] = target: Calcium/calmodulin-dependent protein kinase type IV (Homo sapiens) (UniProt Q16566); experiment: Inhibition of DNA-tagged human CAMK4 assessed as percent of control at 50000 nM by qPCR analysis relative to control; design: scale not given: the % may be the effect or the level left
[19] = target: Mitogen-activated protein kinase kinase kinase 15 (Homo sapiens) (UniProt Q6ZN16); experiment: Inhibition of DNA-tagged human MAP3K15 assessed as percent of control at 50000 nM by qPCR analysis relative to control; design: scale not given: the % may be the effect or the level left
[20] = target: Insulin receptor-related protein (Homo sapiens) (UniProt P14616); experiment: Inhibition of DNA-tagged human INSRR assessed as percent of control at 50000 nM by qPCR analysis relative to control; design: scale not given: the % may be the effect or the level left
[21] = test system: Epidermal growth factor receptor (Homo sapiens), P00533 [T790M]; experiment: Inhibition of DNA-tagged human EGFR T790M mutant assessed as percent of control at 50000 nM by qPCR analysis relative to control; design: scale not given: the % may be the effect or the level left
[22] = target: Homeodomain-interacting protein kinase 4 (Homo sapiens) (UniProt Q8NE63); experiment: Inhibition of DNA-tagged human HIPK4 assessed as percent of control at 50000 nM by qPCR analysis relative to control; design: scale not given: the % may be the effect or the level left
[23] = target: Serine/threonine-protein kinase Nek6 (Homo sapiens) (UniProt Q9HC98); experiment: Inhibition of DNA-tagged human NEK6 assessed as percent of control at 50000 nM by qPCR analysis relative to control; design: scale not given: the % may be the effect or the level left
[24] = test system: Fibroblast growth factor receptor 3 (Homo sapiens), P22607 [G697C]; experiment: Inhibition of DNA-tagged human FGFR3 G697C mutant assessed as percent of control at 50000 nM by qPCR analysis relative to control; design: scale not given: the % may be the effect or the level left
[25] = target: Phosphatidylinositol 4-kinase beta (Homo sapiens) (UniProt Q9UBF8); experiment: Inhibition of DNA-tagged human PIK4CB assessed as percent of control at 50000 nM by qPCR analysis relative to control; design: scale not given: the % may be the effect or the level left
[26] = test system: Epidermal growth factor receptor (Homo sapiens), P00533 [L858R,T790M]; experiment: Inhibition of DNA-tagged human EGFR L858R/T790M double mutant assessed as percent of control at 50000 nM by qPCR analysis relative to control; design: scale not given: the % may be the effect or the level left
[27] = target: Ephrin type-B receptor 6 (Homo sapiens) (UniProt O15197); experiment: Inhibition of DNA-tagged human EPHB6 assessed as percent of control at 50000 nM by qPCR analysis relative to control; design: scale not given: the % may be the effect or the level left
[28] = target: Serine/threonine-protein kinase PknB (Mycobacterium tuberculosis) (UniProt P9WI81); experiment: Inhibition of DNA-tagged Mycobacterium tuberculosis PKNB assessed as percent of control at 50000 nM by qPCR analysis relative to control; design: scale not given: the % may be the effect or the level left

Ribosomal protein S6 kinase alpha-2 (Homo sapiens), sequence (Q15349 whole entry, the tested form may be a part): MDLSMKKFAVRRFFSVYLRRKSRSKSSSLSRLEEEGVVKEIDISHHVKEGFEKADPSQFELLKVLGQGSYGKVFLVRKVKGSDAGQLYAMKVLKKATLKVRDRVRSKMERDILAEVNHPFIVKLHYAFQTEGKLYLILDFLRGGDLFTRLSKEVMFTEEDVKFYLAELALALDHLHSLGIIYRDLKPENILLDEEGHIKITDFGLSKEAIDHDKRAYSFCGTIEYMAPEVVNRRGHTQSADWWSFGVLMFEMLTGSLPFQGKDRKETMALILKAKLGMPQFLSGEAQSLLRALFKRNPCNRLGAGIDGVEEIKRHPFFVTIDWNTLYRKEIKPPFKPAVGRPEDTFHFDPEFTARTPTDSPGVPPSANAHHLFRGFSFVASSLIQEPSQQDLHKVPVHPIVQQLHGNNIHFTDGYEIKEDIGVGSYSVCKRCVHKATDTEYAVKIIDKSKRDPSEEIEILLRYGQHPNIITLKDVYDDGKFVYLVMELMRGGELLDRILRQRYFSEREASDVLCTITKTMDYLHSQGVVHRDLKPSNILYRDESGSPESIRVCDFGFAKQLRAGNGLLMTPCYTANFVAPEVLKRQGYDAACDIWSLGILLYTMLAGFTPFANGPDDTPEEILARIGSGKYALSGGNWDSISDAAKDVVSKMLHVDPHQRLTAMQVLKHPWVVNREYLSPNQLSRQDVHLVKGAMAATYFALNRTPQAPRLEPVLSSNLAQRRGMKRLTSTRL
Macrophage colony-stimulating factor 1 receptor (Homo sapiens), sequence (P07333 whole entry): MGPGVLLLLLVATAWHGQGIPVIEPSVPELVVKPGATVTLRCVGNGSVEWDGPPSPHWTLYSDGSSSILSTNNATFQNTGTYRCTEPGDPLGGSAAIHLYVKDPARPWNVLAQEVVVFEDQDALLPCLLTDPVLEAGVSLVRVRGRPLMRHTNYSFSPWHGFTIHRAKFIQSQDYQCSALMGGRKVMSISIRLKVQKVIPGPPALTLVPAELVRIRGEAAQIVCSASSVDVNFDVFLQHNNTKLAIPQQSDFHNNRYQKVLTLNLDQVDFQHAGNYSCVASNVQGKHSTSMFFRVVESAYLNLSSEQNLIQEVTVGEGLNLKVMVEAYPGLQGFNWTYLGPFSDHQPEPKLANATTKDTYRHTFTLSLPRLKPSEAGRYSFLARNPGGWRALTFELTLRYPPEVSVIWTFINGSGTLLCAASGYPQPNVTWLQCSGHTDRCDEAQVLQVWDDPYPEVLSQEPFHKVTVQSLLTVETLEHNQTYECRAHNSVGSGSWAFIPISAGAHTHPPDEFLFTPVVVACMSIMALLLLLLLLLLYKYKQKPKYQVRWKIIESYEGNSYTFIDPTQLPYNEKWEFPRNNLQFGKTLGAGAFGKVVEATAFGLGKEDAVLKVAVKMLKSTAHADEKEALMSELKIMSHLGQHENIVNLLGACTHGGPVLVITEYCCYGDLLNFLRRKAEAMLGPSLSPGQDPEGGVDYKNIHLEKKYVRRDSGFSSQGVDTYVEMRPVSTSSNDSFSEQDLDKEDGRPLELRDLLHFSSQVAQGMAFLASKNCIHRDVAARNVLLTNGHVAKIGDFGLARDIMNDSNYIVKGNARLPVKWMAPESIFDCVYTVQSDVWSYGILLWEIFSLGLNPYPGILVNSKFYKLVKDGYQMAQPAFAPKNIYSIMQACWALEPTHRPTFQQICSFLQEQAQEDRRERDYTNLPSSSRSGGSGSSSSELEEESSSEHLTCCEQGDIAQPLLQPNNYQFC
Serine/threonine-protein kinase LATS1 (Homo sapiens), sequence (O95835 whole entry): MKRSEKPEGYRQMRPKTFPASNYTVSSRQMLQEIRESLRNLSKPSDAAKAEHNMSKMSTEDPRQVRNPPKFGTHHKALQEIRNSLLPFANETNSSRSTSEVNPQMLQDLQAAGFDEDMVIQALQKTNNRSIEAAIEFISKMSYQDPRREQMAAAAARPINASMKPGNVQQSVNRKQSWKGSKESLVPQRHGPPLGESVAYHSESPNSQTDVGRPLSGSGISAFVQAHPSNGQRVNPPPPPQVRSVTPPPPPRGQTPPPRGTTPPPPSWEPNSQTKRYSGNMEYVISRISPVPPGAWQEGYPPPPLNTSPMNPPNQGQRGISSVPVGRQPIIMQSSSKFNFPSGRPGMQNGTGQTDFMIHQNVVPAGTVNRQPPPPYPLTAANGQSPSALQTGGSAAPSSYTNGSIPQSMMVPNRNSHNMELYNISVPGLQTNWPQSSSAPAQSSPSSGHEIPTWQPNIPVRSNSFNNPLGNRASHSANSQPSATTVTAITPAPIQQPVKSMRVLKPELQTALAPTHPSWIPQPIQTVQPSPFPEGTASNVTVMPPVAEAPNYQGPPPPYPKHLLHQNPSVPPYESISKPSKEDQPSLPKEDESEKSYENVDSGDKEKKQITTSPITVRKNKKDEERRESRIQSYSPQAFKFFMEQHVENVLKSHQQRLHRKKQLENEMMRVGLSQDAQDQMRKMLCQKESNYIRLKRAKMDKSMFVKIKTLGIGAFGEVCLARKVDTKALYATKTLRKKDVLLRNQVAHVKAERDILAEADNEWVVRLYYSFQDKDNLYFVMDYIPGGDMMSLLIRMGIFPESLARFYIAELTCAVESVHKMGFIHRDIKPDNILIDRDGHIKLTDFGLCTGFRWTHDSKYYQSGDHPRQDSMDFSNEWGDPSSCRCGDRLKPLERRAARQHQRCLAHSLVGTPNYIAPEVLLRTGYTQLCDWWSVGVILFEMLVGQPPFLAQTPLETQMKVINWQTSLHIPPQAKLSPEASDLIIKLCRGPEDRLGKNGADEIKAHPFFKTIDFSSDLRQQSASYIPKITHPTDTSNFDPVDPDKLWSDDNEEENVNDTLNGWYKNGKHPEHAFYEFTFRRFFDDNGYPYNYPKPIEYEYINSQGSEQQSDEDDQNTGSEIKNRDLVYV
Serine/threonine-protein kinase Nek6 (Homo sapiens), sequence (Q9HC98 whole entry): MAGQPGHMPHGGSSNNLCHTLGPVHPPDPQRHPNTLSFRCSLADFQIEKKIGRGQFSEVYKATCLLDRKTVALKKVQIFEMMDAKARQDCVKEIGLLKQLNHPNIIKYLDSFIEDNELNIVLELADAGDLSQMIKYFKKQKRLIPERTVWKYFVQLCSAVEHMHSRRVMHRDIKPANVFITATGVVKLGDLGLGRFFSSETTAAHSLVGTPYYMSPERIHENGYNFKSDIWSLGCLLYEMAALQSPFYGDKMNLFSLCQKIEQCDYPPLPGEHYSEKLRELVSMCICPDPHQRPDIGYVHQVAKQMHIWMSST
Tyrosine-protein kinase BTK (Homo sapiens), sequence (Q06187 whole entry): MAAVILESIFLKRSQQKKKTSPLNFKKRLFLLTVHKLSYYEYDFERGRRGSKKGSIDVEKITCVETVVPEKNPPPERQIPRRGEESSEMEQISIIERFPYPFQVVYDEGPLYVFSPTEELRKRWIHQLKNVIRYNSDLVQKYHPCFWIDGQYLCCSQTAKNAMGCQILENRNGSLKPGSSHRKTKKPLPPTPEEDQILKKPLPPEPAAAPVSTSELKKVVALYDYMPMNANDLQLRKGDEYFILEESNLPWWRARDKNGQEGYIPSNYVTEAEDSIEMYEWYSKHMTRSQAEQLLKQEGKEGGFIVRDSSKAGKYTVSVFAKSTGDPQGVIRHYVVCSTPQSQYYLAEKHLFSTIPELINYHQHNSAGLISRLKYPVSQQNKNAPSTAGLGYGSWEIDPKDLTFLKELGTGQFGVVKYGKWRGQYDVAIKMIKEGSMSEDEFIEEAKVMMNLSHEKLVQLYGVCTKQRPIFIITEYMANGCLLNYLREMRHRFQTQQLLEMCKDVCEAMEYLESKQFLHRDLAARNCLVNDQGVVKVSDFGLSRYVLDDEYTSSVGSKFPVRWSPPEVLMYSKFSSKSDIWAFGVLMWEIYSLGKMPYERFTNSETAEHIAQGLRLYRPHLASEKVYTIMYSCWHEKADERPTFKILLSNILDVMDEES
Mitogen-activated protein kinase 13 (Homo sapiens), sequence (O15264 whole entry): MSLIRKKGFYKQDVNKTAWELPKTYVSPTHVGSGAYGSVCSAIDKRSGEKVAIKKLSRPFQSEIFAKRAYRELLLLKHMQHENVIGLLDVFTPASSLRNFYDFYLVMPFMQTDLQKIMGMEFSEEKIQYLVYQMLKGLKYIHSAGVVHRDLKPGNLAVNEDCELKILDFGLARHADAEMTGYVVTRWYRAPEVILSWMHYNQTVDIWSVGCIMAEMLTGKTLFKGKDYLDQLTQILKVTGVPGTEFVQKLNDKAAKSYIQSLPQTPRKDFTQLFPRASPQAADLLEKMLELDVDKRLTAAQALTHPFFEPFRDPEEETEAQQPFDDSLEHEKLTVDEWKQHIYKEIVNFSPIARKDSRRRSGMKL
Mitogen-activated protein kinase kinase kinase 11 (Homo sapiens), sequence (Q16584 whole entry, looked up, the tested form may be a part): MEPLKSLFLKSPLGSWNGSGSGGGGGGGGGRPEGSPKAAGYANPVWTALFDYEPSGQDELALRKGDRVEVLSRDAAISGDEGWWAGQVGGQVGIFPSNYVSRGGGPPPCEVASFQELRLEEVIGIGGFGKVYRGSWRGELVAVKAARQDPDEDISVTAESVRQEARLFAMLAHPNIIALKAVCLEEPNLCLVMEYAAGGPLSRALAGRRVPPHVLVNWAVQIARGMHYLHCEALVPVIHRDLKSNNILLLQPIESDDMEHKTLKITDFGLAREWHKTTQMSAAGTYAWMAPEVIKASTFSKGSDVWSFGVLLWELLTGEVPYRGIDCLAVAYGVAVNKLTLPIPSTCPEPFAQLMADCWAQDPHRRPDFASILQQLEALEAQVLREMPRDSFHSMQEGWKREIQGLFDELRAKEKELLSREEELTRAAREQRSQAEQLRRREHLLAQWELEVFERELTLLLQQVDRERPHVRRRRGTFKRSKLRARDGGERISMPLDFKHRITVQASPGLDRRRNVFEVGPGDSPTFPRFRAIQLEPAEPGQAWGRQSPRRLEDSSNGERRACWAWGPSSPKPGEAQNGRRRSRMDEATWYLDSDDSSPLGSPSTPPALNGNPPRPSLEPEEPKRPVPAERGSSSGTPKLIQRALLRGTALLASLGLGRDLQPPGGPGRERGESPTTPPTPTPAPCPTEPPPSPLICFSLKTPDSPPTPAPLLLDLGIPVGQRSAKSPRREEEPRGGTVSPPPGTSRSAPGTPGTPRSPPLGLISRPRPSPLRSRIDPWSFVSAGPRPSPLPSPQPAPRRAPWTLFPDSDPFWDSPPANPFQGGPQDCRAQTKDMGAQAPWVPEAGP

`CN1C(=O)/C(=C2/C(=O)Nc3ccccc32)c2ccccc21` showed an Activity [1] of 92%, an Activity [2] of 100% and an Activity [3] of 89%. The Activity [4] was 100%, the Activity [5] was 64% and the Activity [6] was 71%. The Activity [7] was 100%, the Activity [8] was 88% and the Activity [9] was 100%. It also gave an Activity [10] of 92%, an Activity [11] of 82% and an Activity [12] of 85%. The Activity [13] was 93%, the Activity (OCI-AML-3) was “Active” and the Activity [14] was 98%. It also gave an Activity [15] of 91%, an Activity [16] of 100% and an Activity [17] of 94%. The Activity (MV4-11) was “Active”, the Activity [18] was 88% and the Activity [19] was 69%. The Activity [20] was 84%, the Activity [21] was 96% and the Activity [22] was 100%. It also gave an Activity [23] of 81%, an Activity [24] of 100% and an Activity [25] of 100%. It also gave an Activity [26] of 98%, an Activity [27] of 89% and an Activity [28] of 100%.
